Measurements as given in PMC6407594 (Journal of Enzyme Inhibition and Medicinal Chemistry, 2019).
Where two headings read alike, the source gives them in different places.

Assays:
murine SMOX [1] = biological target: T1, murine SMOX (Mus musculus, UniProt Q99K82); test: Inhibition of SMOX activity, spermine as substrate; assay type: biochemical; details: for SMOX Kmapp/Km0: 50 μM compound, relative to control
human MAO A = details: cited from earlier work
murine PAOX = murine PAOX (Mus musculus, UniProt Q8C0L6); test: Inhibition of PAOX activity, N1AcSPM as substrate; assay type: biochemical; details: for PAOX Kmapp/Km0: 50 μM compound, relative to control; for PAOX Kmapp: Km of N1AcSPM in the presence of 50 μM compound
Chain of murine PAOX (Q8C0L6 whole entry): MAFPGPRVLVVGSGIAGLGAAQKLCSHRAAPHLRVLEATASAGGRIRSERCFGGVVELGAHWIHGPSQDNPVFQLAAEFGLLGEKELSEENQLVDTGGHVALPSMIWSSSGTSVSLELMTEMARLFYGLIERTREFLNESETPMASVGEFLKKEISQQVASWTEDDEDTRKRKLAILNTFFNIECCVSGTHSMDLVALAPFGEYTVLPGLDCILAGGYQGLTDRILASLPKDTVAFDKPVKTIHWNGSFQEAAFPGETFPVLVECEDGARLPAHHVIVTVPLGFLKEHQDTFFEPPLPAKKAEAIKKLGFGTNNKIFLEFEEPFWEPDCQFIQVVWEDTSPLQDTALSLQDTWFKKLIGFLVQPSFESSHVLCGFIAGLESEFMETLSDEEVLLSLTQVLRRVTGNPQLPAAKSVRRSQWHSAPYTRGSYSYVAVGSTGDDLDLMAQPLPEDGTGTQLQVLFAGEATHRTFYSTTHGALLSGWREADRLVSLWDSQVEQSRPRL

murine SMOX [2] = biological target: T1, murine SMOX; details: read-out: SMOX Ki; purified murine SMOX; cited from earlier work
[3] = biological target: PAOX activity in HT22 cells (Mus musculus, UniProt Q8C0L6); test: PAOX activity in whole HT22 cells; assay type: cell-based
Chain of PAOX activity in HT22 cells (Q8C0L6 whole entry): as above

ODC = details: at a concentration of 10 μM; cited from earlier work
[4] = cited from earlier work
SSAT = details: at a concentration of 10 μM; cited from earlier work
MAOs = test: Amine oxidase activity in HT22 cell lysate, tyramine as substrate; assay type: biochemical, mouse; details: tyramine 1 mM, after pre-incubation with inhibitor
[5] = Km of SPM in the presence of 50 μM compound

T1 sequence (Q99K82 whole entry): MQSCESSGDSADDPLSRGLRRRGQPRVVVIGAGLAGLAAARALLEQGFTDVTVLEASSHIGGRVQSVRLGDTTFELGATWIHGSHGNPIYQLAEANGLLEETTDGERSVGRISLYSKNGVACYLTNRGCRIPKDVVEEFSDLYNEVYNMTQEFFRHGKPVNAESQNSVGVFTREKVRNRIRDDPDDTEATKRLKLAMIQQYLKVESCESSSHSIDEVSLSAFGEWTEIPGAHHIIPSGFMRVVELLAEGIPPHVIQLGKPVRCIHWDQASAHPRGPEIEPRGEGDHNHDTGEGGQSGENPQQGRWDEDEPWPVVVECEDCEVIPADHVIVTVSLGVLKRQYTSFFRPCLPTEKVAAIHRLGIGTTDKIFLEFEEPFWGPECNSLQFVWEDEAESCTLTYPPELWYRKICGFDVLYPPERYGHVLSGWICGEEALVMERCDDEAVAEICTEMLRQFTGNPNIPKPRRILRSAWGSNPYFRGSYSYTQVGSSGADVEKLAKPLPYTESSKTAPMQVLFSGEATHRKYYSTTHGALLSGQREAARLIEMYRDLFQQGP

| SMILES | Ki (murine SMOX [1]) | PAOX Kmapp/Km0 (murine PAOX) | PAOX Kmapp (murine PAOX) | SMOX Kmapp/Km0 (murine SMOX [1]) | SMOX Kmapp (murine SMOX [1]; [5]) | further results |
| --- | --- | --- | --- | --- | --- | --- |
| NCCCCCCCCCCCCN [DIADO, 1,12-diaminododecane, reference compound] | – | 9 | 3.40 ± 0.26 µM | 1.2 | 600 ± 100 µM | Behaviour towards MAO A (human MAO A): excellent substrate; Ki (murine SMOX [2]): > 1000 µM |
| COc1ccccc1CN(C)CCCCCC(=O)N(C)CCCCCCCCN(C)C(=O)CCCCCN(C)Cc1ccccc1OC [Compound 14, Caproctamine] | – | 112 | 43 ± 9 µM | 1.21 | 598 ± 156 µM | – |
| c1ccc(CNCCCCCCCCCCCCNCc2ccccc2)cc1 [Compound 9, N1,N^12-dibenzyldodecanediamine] | – | 108 | 41 ± 221 µM | 2.3 | 1135 ± 141 µM | – |
| C#CCN(C)Cc1ccccc1 [pargyline] | – | – | – | – | – | Activity with tyramine with respect to control sample (MAOs): 2% |

Further lines, with some results ahead:

| Ki (murine SMOX [1]) | PAOX Kmapp/Km0 (murine PAOX) | PAOX Kmapp (murine PAOX) | SMOX Kmapp/Km0 (murine SMOX [1]) | SMOX Kmapp (murine SMOX [1]; [5]) | SMILES | further results |
| --- | --- | --- | --- | --- | --- | --- |
| 3.8 ± 0.2 µM | – | – | – | – | [H]/N=C(\N/C(=N/[H])NCCCCCCNC(=N)NC(=N)Nc1ccc(Cl)cc1)Nc1ccc(Cl)cc1 [Chlorhexidine, chlorhexidine, reference compound] | SMOX Kmapp (murine SMOX [1]): 1402 ± 124 µM |
| 1.2 ± 0.1 µM | – | – | 18 | 8940 ± 1600 µM | COc1ccccc1CNCCCCCCNCCCCCCCCNCCCCCCNCc1ccccc1OC [Compound 10, Methoctramine] | IC50 [3]: 0.16 ± 0.01 µM; IC50 in HT22 cells relative to Ki of recombinant enzyme ([3]; IC50/Ki): about 16 times; Effect on ODC (ODC): did not significantly affect; Cytotoxicity [4]: low cytotoxicity; Ki (murine PAOX): 0.01 ± 0.0015 µM; Mode of inhibition of PAOX (murine PAOX; double reciprocal plots): competitive inhibitors; Mode of inhibition of SMOX (murine SMOX [1]; double reciprocal plots): competitive inhibitors; Effect on SSAT (SSAT): did not significantly affect |
